# Experiment: In vitro binding affinity against Alpha-1A adrenergic receptor in isolated prostate tissue of dog
structure (smiles),measurement,value
"CCC1=C(C(N)=O)C(c2ccc(F)c(F)c2)N(C(=O)NCCCN2CCC(C(=O)OC)(c3ccccc3)CC2)C(=O)N1 (stereo unspecified) [1-(3-{[5-Carbamoyl-6-(3,4-difluoro-phenyl)-4-ethyl-2-oxo-3,6-dihydro-2H-pyrimidine-1-carbonyl]-amino}-propyl)-4-phenyl-piperidine-4-carboxylic acid methyl ester]",Ki,1.3 nM

# Source: BindingDB's records for doi:10.1021/jm990200p (Synaptic Pharmaceutical, 1999)
